One data set concerns PI3Ks. The data set can be described thus: PI3K inhibitory activity of copper salts. The format is biochemical. The following applies: up to 10 μM. As to the method:
With this procedure in hand, we proceeded with our combinatorial strategy. The azides were selected to introduce both electron‐donating and electron‐withdrawing groups, hydrogen‐bond donors and acceptors, and ionizable functions. They were already present in our database or prepared according to standard procedures. […] Then, the 1,2,3‐triazoles were evaluated for their ability to inhibit PI3K isoforms of class I at a fixed concentration of 1 μM, as shown in Table 1. The synthesized 1,2,3‐triazoles along with their ability to inhibit PI3K isoforms at 1 μM concentration are reported. Possibly, a minute concentration of copper salts might have precipitated with the products and might have been retained in the purified compounds, and so, we also evaluated the PI3K inhibitory activity of these salts.

Data set [1] is described as follows: metabolic stability in rat liver microsomes (RLM). The format is in vitro ADME. Conditions: RLM, 50 μM substrate, with NADPH; for Residual microsomal substrate (t=60 min): LC–UV. As to the method: (§1) Twelve esters were prepared (see the Experimental Section for their synthesis and the Supporting Information for chromatographic methods) and evaluated in terms of metabolic stability. For this task, a combined approach based on microsomal and plasmatic stability assays was exploited considering the relevance of the plasmatic and hepatic tissues in esterase activity. Microsomal stability of the selected esters was evaluated by monitoring the disappearance of the substrate incubated in rat liver microsomes (RLM) at 50 μM concentration, in the presence of NADPH. In Table 4, the percentage of the remaining substrate, after incubation (t=60 min), with respect to the initial amount is reported. Overall, the compounds underwent a relevant metabolic transformation, and the substrate depletion ranged from 0 (for 76) to 100 % (for 70). This is mainly due to hydrolysis of the ester function, whereas the metabolites arising from the oxidation catalyzed by the NADPH‐dependent monooxygenase system were negligible from a quantitative point of view. Indeed, the main metabolite formed during the incubation of the esters was corresponding carboxyl derivative 37. […] Moreover, whereas CH2‐pyridin‐4‐yl ester 70 was completely metabolized, corresponding benzyl derivative 65 and piperonyl derivative 72 were more hydrolytically stable, and their residual substrates were 53 and 83 %, respectively. The hydrolytic stability of the selected esters was also evaluated by monitoring the depletion of the substrate incubated at a 50 μM concentration in mouse plasma over a period of 30 min. As expected, the plasmatic metabolic fate of the esters was characterized by the formation of 37 as the only metabolite (see Figure S4). The rate constant k [min^−1], derived for the substrate peak area versus time curve (single‐exponential decay equation—GraphPad Prism software, Inc., San Diego, CA (USA); see Figure S5) was used to calculate the in vitro half‐life t 1/2 [min], and the values are reported in Table 4.
Metabolic stability of PI3K inhibitors in RLM fraction
The standard incubation mixture (500 µL final volume), in 1.5 mL Eppendorf tubes, was carried out in a 50 mM TRIS-HCl buffer (pH 7.4) containing 3.3 mM MgCl2, 1.3 mM NADPNa2, 3.3 mM glucose 6-phosphate, 0.4 Units/mL glucose 6-phosphate dehydrogenase (NADPH regenerating system), acetonitrile as cosolvent (1% of final volume) and 50 µM of substrate. After pre-equilibration of the mixture, an appropriate volume of rat microsomal suspension was added to give a final protein concentration of 1 mg/mL. The mixture was shaken for 1 hour at 37°C and the reaction was quenched by diluting the samples with 500 µL of ice-cold acetonitrile. The samples were then centrifuged at 13,000 rpm for 10 min, and the supernatant was directly injected onto the HPLC column for analysis. Control incubations were performed without microsomes. […]
(§2) A Shimadzu HPLC system (Shimadzu, Kyoto, Japan), consisting of two LC-10AD Vp module pumps, an SLC-10A Vp system controller, an SIL-10AD Vp autosampler, and a DGU-14-A on-line degasser was used for the analysis. All the chromatographic separations were performed on a Phenomenex Luna C18 5µm (150 x 4.6 mm i.d.) (Phenomenex srl, Castel Bolognese, Italy) as a stationary phase protected by a Luna C18 SecurityGuard (Phenomenex srl). The SPD-M10Avp photodiode array detector was used to detect the analyte at 254 nm. LC Solution 1.24 software was used to process the chromatograms. Aliquots (20 µL) of supernatants obtained from incubations were injected onto the HPLC system and eluted with a mobile phase (flow rate: 1 mL/min) consisting of solvent A- 0.5% aqueous formic acid solution and solvent B- acetonitrile/methanol 80:20.
(§3) The eluants were filtered through a 0.45-µm pore size polyvinylidene difluoride membrane […]
(§4) The following gradients programs were used: […]
For orientation: Liver microsomes are a subcellular fraction often used to study metabolism.

Data set [2] is described as follows: stability in mouse plasma. The format is in vitro ADME. The following applies: 50 μM substrate; for half-life at 50 µM: mouse, mouse plasma, 30 min incubation, 37 °C, read-out: Mouse plasma t 1/2. As to the method: as §1, with “4. […]” for “4.”
Stability of PI3K inhibitors in mouse plasma
An aliquot of 460 µL of blank plasma spiked with substrate (50 µM, final concentration, DMSO 5%) was incubated at 37 °C for 30 minutes. Aliquots (70 µL) of the incubation took at 0-2-5-10-20, and 30 minutes were diluted with 140 µL of acetonitrile, homogenized, and centrifuged at 13,000 rpm for five minutes. Supernatants (20 µL) were injected onto HPLC.
as §2, §3, §4

The next data set relates to PC3 cells. Put plainly: PC3 cell proliferation (MTT). Type of data set: cell-based. Also noted: key to Cell proliferation: active: Active: able to reduce proliferation to an extent greater than 50 %; inactive: able to reduce proliferation to an extent less than 50 %. Conditions: PC3 cells, 10 μM of each prodrug. As to the method:
The biological activity of each prodrug was tested by analyzing their ability to decrease PC3 proliferation as a rapid test to evaluate the PI3Ks inhibitory activity after hydrolysis in a cell‐based assay. […] The choice of using such a cut‐off was due to the intent to identify rapidly which prodrug could be hydrolyzed in the assay to release the active compound. As expected, a good correlation between rate of hydrolysis and cellular activity was observed, and esters 64–68 and 70–73 were determined to be good candidates for topical use. We decided to focus our attention on ester 64, as its half‐life was a good compromise for a prodrug. The EC50 value of this ester was then evaluated on PC3 cells, and a value of (2.3±0.8) μM was obtained.
Cell proliferation: PC3 cell proliferation was measured with a 3‐(4,5‐dimethyl thiazol‐2‐yl)‐2,5‐diphenyltetrazolium bromide (MTT)‐based colorimetric assay (#11 465 007 001 Roche Diagnostic GmbH, Germany). PC3 cells were seeded in a 96‐well plate at a concentration of 10^4 cells mL^−1. PC3 cells were treated for 72 h with increasing concentrations of 64, and MTT was added. After ON solubilization of the MTT metabolite, formazan, the absorbance (λ=550–600 nm absorbance, with a reference wavelength of 650 nm) of each well was read in a multi‐well reader (Glomax multi detection system, Promega, model number 9301‐010). The percentage of proliferating cells was calculated by relating each absolute value to the control intended as PC3 cells treated with DMSO alone. An IC50 value was then derived by plotting all data on a dose–response curve (Graph Pad software) by using nonlinear regression fit (equation [log agonist] versus response).

For `CC(=O)[O-].CC(=O)[O-].[Cu+2]` [copper(II) acetate], in the data set with PI3Ks, the “inhibition of PI3Ks” value is given as “Neither copper(II) acetate nor copper(I) iodide displayed significant inhibition of PI3Ks up to 10 μM”.

Consider `CC(C)(C)OC(=O)c1cccc(Cn2cc(-c3cccc4c(=O)cc(N5CCOCC5)[nH]c34)nn2)c1` [Compound 69, tert ‐Butyl 3‐{[4‐(2‐morpholino‐4‐oxo‐1,4‐dihydroquinolin‐8‐yl)‐1H‐1,2,3‐triazol‐1‐yl]methyl}benzoate], for which, in data set [1], the “Residual microsomal substrate (t=60 min)” value worked out at 79%. In addition, the “hydrolysis by mouse plasma hydrolases” value in data set [2] (30 min) is reported as “inert to the mouse plasma hydrolases”. For the same molecule, the Cell proliferation entry in the data set on PC3 cells was “inactive”.

Turning to `CCCCOC(=O)c1cccc(Cn2cc(-c3cccc4c(=O)cc(N5CCOCC5)[nH]c34)nn2)c1` [Compound 68, Butyl 3‐{[4‐(2‐morpholino‐4‐oxo‐1,4‐dihydroquinolin‐8‐yl)‐1H‐1,2,3‐triazol‐1‐yl]methyl}benzoate], the “Residual microsomal substrate (t=60 min)” value in data set [1] is 53%. Besides, the half-life at 50 µM in data set [2] is less than 1 min. Besides, in the data set with PC3 cells, the Cell proliferation result was “active”.

For `O=C(OCCN1CCOCC1)c1cccc(Cn2cc(-c3cccc4c(=O)cc(N5CCOCC5)[nH]c34)nn2)c1` [Compound 71, 2‐Morpholinoethyl 3‐{[4‐(2‐morpholino‐4‐oxo‐1,4‐dihydroquinolin‐8‐yl)‐1H‐1,2,3‐triazol‐1‐yl]methyl}benzoate], the “Residual microsomal substrate (t=60 min)” value in data set [1] was 18%. Also, the half-life at 50 µM in data set [2] is 2.5 min. In the data set with PC3 cells, the Cell proliferation result is listed as “active”.

The molecule `O=C(OCc1ccncc1)c1cccc(Cn2cc(-c3cccc4c(=O)cc(N5CCOCC5)[nH]c34)nn2)c1` [Compound 70, Pyridin‐4‐ylmethyl 3‐{[4‐(2‐morpholino‐4‐oxo‐1,4‐dihydroquinolin‐8‐yl)‐1H‐1,2,3‐triazol‐1‐yl]methyl}benzoate] displayed a substrate depletion in data set [1] (60 min) of 100%. Further, the “Residual microsomal substrate (t=60 min)” value in data set [1] is recorded as 0%. In addition, in data set [2], the half-life at 50 µM is less than 1 min. The Cell proliferation entry in the data set with PC3 cells is listed as “active”.

Take `O=C(OCc1ccccc1)c1cccc(Cn2cc(-c3cccc4c(=O)cc(N5CCOCC5)[nH]c34)nn2)c1` [Compound 65, Benzyl 3‐{[4‐(2‐morpholino‐4‐oxo‐1,4‐dihydroquinolin‐8‐yl)‐1H‐1,2,3‐triazol‐1‐yl]methyl}benzoate]: the “Residual microsomal substrate (t=60 min)” value in data set [1] worked out at 53%. In addition, the half-life at 50 µM in data set [2] is less than 1 min. In addition, in the data set on PC3 cells, the Cell proliferation entry is recorded as “active”.

As to `[Cu+].[I-]` [copper(I) iodide], in the data set with PI3Ks, the “inhibition of PI3Ks” value is given as “Neither copper(II) acetate nor copper(I) iodide displayed significant inhibition of PI3Ks up to 10 μM”.

Take `CCCC(C)OC(=O)c1cccc(Cn2cc(-c3cccc4c(=O)cc(N5CCOCC5)[nH]c34)nn2)c1` (stereo not drawn) [Compound 74, Pentan‐2‐yl 3‐{[4‐(2‐morpholino‐4‐oxo‐1,4‐dihydroquinolin‐8‐yl)‐1H‐1,2,3‐triazol‐1‐yl]methyl}benzoate]: in data set [1], the “Residual microsomal substrate (t=60 min)” value was 60%. The half-life at 50 µM in data set [2] was determined as 4.2 min. Besides, the Cell proliferation entry in the data set on PC3 cells is “inactive”.

In the case of `CCCCCCCCCCCOC(=O)c1cccc(Cn2cc(-c3cccc4c(=O)cc(N5CCOCC5)[nH]c34)nn2)c1` [Compound 75, Undecyl 3‐{[4‐(2‐morpholino‐4‐oxo‐1,4‐dihydroquinolin‐8‐yl)‐1H‐1,2,3‐triazol‐1‐yl]methyl}benzoate], the “Residual microsomal substrate (t=60 min)” value in data set [1] is 80%. Further, the half-life at 50 µM in data set [2] was determined as 4.4 min. In addition, the Cell proliferation result with PC3 cells is “inactive”.

As to `CC(C)OC(=O)c1cccc(Cn2cc(-c3cccc4c(=O)cc(N5CCOCC5)[nH]c34)nn2)c1` [Compound 66, Isopropyl 3‐{[4‐(2‐morpholino‐4‐oxo‐1,4‐dihydroquinolin‐8‐yl)‐1H‐1,2,3‐triazol‐1‐yl]methyl}benzoate], the “Residual microsomal substrate (t=60 min)” value in data set [1] is listed as 16%. For the same molecule, the half-life at 50 µM in data set [2] is 15.1 min. The Cell proliferation entry in the data set on PC3 cells is on record as “active”.

Regarding `O=C(OCc1ccc2c(c1)OCO2)c1cccc(Cn2cc(-c3cccc4c(=O)cc(N5CCOCC5)[nH]c34)nn2)c1` [Compound 72, Benzo[d][1,3]dioxol‐5‐yl methyl 3‐{[4‐(2‐morpholino‐4‐oxo‐1,4‐dihydroquinolin‐8‐yl)‐1H‐1,2,3‐triazol‐1‐yl]methyl}benzoate], the “Residual microsomal substrate (t=60 min)” value in data set [1] was 83%. In data set [2], the half-life at 50 µM is less than 1 min. Further, the Cell proliferation entry with PC3 cells was “active”.

The values are drawn from publication PMC5697638, “Identification of a Potent Phosphoinositide 3‐Kinase Pan Inhibitor Displaying a Strategic Carboxylic Acid Group and Development of Its Prodrugs” (Chemmedchem, 2017).
